Patent US6831080B2, “Cinnamide derivatives as KCNQ potassium channel modulators” (Bristol-Myers Squibb Company, priority 2001, dated 2004)

What was measured:
[1] = target: cloned mouse KCNQ2 (mKCNQ2) (Mus musculus, UniProt Q9Z351); experiment: KCNQ oocyte two-electrode voltage clamp, whole-cell outward current; format: cell-based; conditions: single holding potential (−40 μM [sic]), Xenopus oocytes
Protocol: The ability of compounds described in the present invention to open KCNQ channels and increase whole-cell outward (K^+) KCNQ-mediated currents was assessed under voltage-clamp conditions by determining their ability to increase cloned mouse KCNQ2 (mKCNQ2)-mediated, heteromultimeric KCNQ2/3 (mKCNQ2/hKCNQ3)-mediated, and human KCNQ5 (hKCNQ5)-mediated outward currents heterologously expressed in Xenopus oocytes. Oocytes were prepared and injected using standard techniques; each oocyte was injected with approximately 50 nl of mKCNQ2, or hKCNQ5 cRNA. In the case of mKCNQ2/h3 heteromultimeric channel expression, equal amounts (25-50 nL) of each cRNA were co-injected. […] Following injection, oocytes were maintained at 17° in ND96 medium consisting of (in mM): NaCl, 90; KCl, 1.0; CaCl2, 1.0; MgCl2, 1.0; HEPES, 5.0; pH 7.5. Horse serum (5%) and penicillin/streptomycin (5%) were added to the incubation medium. Recording commenced 2-6 days following mRNA injection. Prior to the start of an experiment oocytes were placed in a recording chamber and incubated in Modified Barth's Solution (MBS) consisting of (in mM): NaCl, 88; NaHCO3, 2.4; KCl, 1.0; HEPES, 10; MgSO4, 0.82; Ca(NO3)2, 0.33; CaCl2, 0.41; pH 7.5.
Oocytes were impaled with electrodes (1-2 MΩ) and standard 2-electrode voltage clamp techniques were employed to record whole-cell membrane currents. Recordings were accomplished using standard two-electrode voltage clamp techniques [Stuhmer, W., et al., Methods in Enzymology, Vol. 207: 319-339 (1992)]. Voltage-clamp protocols typically consisted of a series of voltage steps 1-5 sec duration, in +10 mV steps from a holding potential of −90 mV to a maximal potential of +40 mV; records were digitized at 5 kHz and stored on a computer using pClamp data acquisition and analysis software (Axon Instruments). Compounds were evaluated at a single concentration and at a single holding potential (−40 μM); the effect of the selected compounds of Formula I on KCNQ2 current was expressed as the percent of control current and is listed in Table I.

[2] = system: stretched attend postures, BalbC/HSD mice; experiment: Canopy test for anxiety: stretched attend postures (SAPs); format: in vivo, mouse
Source text: The purpose of the Canopy test is to investigate the potential of compounds of Formula I as effective treatments for anxiety by examining an integral component of the risk assessment repertoire of defensive behaviors, the stretched attend posture (SAPs). […] This behavior is investigatory, and is considered an important behavioral indicator of anxiety in mice (Grewal et al., 1997). In brief, mice are placed on an elevated circular platform with a covered space in the middle, and an open space surrounding the covered zone. The number of SAPs the animals makes when exploring this environment are measured.
Subjects: Male BalbC/HSD mice (Harlan Sprague Dawley) weighing approximately 20-25 g at the beginning of the experiment, were used. Animals were group housed 4-5 per cage, in standard shoebox cages and maintained on a 12:12 h light-dark cycle (lights on at 0600). All animals were allowed food and water ad libitum throughout the procedure.
Apparatus: The test apparatus is comprised of a black plexiglas circular platform (70 cm diameter) elevated 60 cm above the floor. A clear red plexiglas (translucent) ‘canopy’ (38 cm diameter) is supported 4 cm directly above the platform by a central pillar, effectively dividing the platform into an inner, covered zone (beneath the canopy) and an outer, exposed zone. The apparatus is illuminated by normal room lighting.
Procedure: On test days mice are transported in their home cage to the testing room which is free of noise/distraction and the mice are injected with the compound of choice, prior to testing. For the KCNQ compounds, when administered IV, pretreatment time is 15 minutes. For oral administration, pretreatment time is 1 hour. Following the pretreatment, the animal is placed in the covered zone of the platform, always oriented in the same direction, facing the pillar. For 5 minutes the animals are allowed to freely explore the apparatus. The dependent variable is the number of Stretched Attend Postures, which are scored by an observer blind to treatment condition. Data were analyzed by an overall analysis of variance followed by Dunnett's post hoc tests. An effect was considered significant if p<0.05.
All test compounds are administered in a volume of 10 ml/kg. Vehicle and buspirone (as the positive control) treated mice were run with each experiment, and buspirone was dissolved in the same vehicle as used per each compound. Compounds of Formula I were administered IV, in a vehicle containing 10% PEG400/5% Tween/85% water, warmed on a hot plate.

[3] = system: nerve injury-induced tactile allodynia (L5/L6 ligation), Sprague Dawley rats; experiment: Chung model of neuropathic pain (Chung surgery and von Frey test); format: in vivo, rat; conditions: 100 mg/kg, i.v., von Frey thresholds over 90 min
Protocol: To test agents for activity against peripheral mononeuropathy nerve injury-induced tactile allodynia, male Sprague Dawley rats (wt. 120-160 g) were surgically prepared with unilateral tight ligation of spinal nerves L5 and L6 following the method of Kim and Chung (Kim S. H., Chung J. M. (1992) Pain, September;50(3):355-63). After 3-4 weeks recovery, paw withdrawal to light touch was assessed as described by Chaplan et al. (Chaplan S. R., et al., (1994) J. Neurosci Methods, July;53(1):55-63). In brief, rats are placed in a plastic cage with a wire mesh bottom and allowed to acclimate for 15-30 minutes, until cage exploration and grooming stops. The plantar surface of each hind paw is touched with a series of von Frey hairs with varying stiffness requiring a known force to buckle to determine the nociceptive threshold. Adult male Sprague Dawley rats (avg. wt. 340 g) were tested in the present study. After acclimation, baseline von Frey thresholds were assessed for the injured hindpaw at −15 min. All test compounds were delivered at 0 min by the intravenous (i.v.) route in a volume of 0.5-2 ml/kg. The vehicle for test compounds was 100% PEG-400. For gabapentin the vehicle was deionized H2O. Animals were tested in one of the following 4 treatment conditions: (a) PEG400, (b) gabapentin (Neurontin) 100 mg/kg, (c) test compounds 3 mg/kg and (d) test compounds 10 mg/kg. Following drug administration, von Frey thresholds are measured at 15, 30, 60 and 90 min. Data were analyzed by a 2-way repeated measures analysis of variance followed by Dunnett's test (p<0.05). Experimenters were kept blind to the treatment condition of rats they tested.
Reversal of neuropathic pain behavior may be expressed as a percentage (0-100%) of the maximum possible effect, over and above the vehicle effects. Specifically, drug effects can be described in terms Δ% MPE according to the following equation: [formula]
AUCdrug=area under the curve for von Frey thresholds of the drug-treated group;
AUCvehicle=area under the curve for von Frey thresholds in the vehicle group;
Time=duration of post-drug testing period (90 min); and
Max=maximum von Frey threshold (15 g).
For example, a compound which immediately reversed neuropathic pain behavior to normal levels, such that animals only responded to the highest von Frey filament (15 g), and maintained normal levels through out the post-drug testing period (90 min) would be calculated as Δ% MPE=100%.

[4] = system: cortical spreading depression (KCl application), Long-Evans rats; experiment: In vivo electrophysiology: number of cortical spreading depressions produced by KCl application; conditions: i.v., 15 min prior to KCl, rat
Source text: Male Long-Evans rats (300-450 g) were used in the present studies (Harlan). Rats were anesthetized with urethane anesthesia (1.2 g/kg i.p.) and placed in a stereotaxic frame. Under anesthesia a Silastic catheter was placed in the jugular vein of the rats. The skull was exposed using a scalpel. A small hole (approximately 2 mm by 3 mm) was drilled in to the skull rostral to the lambdoid suture using a microdrill and steel burr. The dura was disrupted and a drop of mineral oil was placed in this hole to prevent dehydration of the underlying cortex. Ultimately this hole was used for the application of crystalline KCl (described below).
Two additional holes were place in the skull unilaterally at 4 and 8 mm rostral to the application hole. Silver wire electrodes were placed in these latter holes and secured to the skull using acrylic cement. A similar silver wire electrode was sutured to the nuchal muscle to serve as a reference electrode. Electrical DC recordings were obtained using a standard differential amplifier (Warner, DP-304) and commercially available data acquisition equipment (Cambridge Electronic Design, 1401 A-D converter and Spike2 software).
All experimental procedures were conducted while the rats were maintained under anesthesia. Rats were injected with test compound, valproic acid or vehicle (100% PEG-400) 15 min prior to the application of crystalline KCl to the application site described above. All injections were given via the jugular vein at a volume of ≦0.5 ml/kg. Only one treatment was tested per animal. The effect of valproic acid was also determined in this study due to the fact that Depakote™ (divalproex sodium) is one of only three drugs currently indicated for the prophylatic treatment of migraine headache. Valproic acid (30-200 mg/kg i.v.) was obtained from Sigma Chemical Company and was dissolved in a vehicle of isotonic saline.
KCl was applied to the application site for 10 min and was then removed using a saline soaked cotton swab. Mineral oil was subsequently reapplied to the application site. Typically, this application produced a long-lasting series of spreading depressions. The number of spreading depressions produced by this KCl application was the primary measure used to access the effectiveness of compounds in this assay.
Data were analyzed using analyses of variance followed by the Dunnett post-hoc test for pairwise comparisons, when appropriate. A difference was considered significant when p≦0.05.
The effect of representative compounds of Formula I on spreading depression is expressed as the percent reduction from vehicle control and is listed in Table 3.

cloned mouse KCNQ2 (mKCNQ2), sequence (Q9Z351 whole entry): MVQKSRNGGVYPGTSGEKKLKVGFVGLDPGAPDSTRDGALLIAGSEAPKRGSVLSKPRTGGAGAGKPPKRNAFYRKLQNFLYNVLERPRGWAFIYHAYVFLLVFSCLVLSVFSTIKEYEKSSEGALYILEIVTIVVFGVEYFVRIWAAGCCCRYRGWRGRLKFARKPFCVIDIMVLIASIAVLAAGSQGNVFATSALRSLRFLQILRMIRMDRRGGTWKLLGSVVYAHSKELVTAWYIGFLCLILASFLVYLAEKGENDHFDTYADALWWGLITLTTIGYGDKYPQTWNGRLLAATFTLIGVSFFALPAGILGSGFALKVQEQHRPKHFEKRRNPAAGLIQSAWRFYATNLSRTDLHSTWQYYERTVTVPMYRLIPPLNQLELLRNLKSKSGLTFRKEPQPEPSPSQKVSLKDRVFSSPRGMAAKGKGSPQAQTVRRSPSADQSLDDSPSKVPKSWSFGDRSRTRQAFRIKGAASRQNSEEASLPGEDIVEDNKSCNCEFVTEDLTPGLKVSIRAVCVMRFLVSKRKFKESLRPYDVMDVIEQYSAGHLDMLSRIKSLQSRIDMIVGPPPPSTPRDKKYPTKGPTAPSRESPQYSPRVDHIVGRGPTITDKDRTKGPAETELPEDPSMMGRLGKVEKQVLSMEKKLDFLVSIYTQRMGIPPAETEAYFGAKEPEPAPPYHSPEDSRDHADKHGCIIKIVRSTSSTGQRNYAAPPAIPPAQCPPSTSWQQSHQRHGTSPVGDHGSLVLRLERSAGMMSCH

In the case of `CC(NC(=O)/C=C/c1cccc(F)c1)c1ccc2c(c1)OCCO2` (racemic) [Example 183, (±)-3-(3-Fluorophenyl)-N-[1-(2.3-dihydrobenzo[1,4]dioxin-6-yl)-ethyl]acrylamide], the activity at 10 µM [1] was 135%.

`C[C@H](NC(=O)/C=C/c1ccccc1)c1ccc2ccccc2c1` [Example 2, (S)-N-(1-Naphthalen-2-yl-eth-yl)-3-phenyl-acryla-mide] gave an activity at 5 µM [1] of 160%.

For `CC(NC(=O)/C=C/c1ccc(Cl)cc1)c1ccc2c(c1)CCO2` (single isomer, unassigned) [Example 79, 3-(4-Chloro-phenyl)-N-[1-(2,3-di-hydro-benzo-furan-5-yl)-ethyl]-acrylamide], the activity at 1 µM [1] was 123%.

Work on `COC(=O)N1CCc2ccc(C(C)NC(=O)/C=C/c3ccccc3)cc2C1` (racemic) [Example 197, (±)-7-[1-(3-Phenyl-acryloyl-amino)-ethyl]-3,4-di-hydro-1H-iso-quinoline-2-carboxylic acid methyl ester] yielded an activity at 10 µM [1] of 187%.

`COC(=O)N1CCc2ccc(C(C)NC(=O)/C=C/c3ccc(Cl)cc3)cc2C1` (racemic) [Example 199, (±)-7-{1-[3-(4-Chloro-phen-yl)-acryloylamino]-eth-yl}-3,4-dihydro-1H-iso-quinoline-2-carboxylic acid methyl ester] was tested, and the activity at 5 µM [1] was 138%.

In the case of `O=C1CC2(CCCC2)CC(=O)N1CCCCN1CCN(c2ncccn2)CC1` [Buspirone, buspirone, reference compound], the “% Reduction SAPs” value ([2]; 0.5 mg/kg, i.v., mouse) was 71 (0.5 mg/kg. i.v.) % and the “Reduction in stretched attend postures (in words)” value ([2]; buspirone 0.5 mg/kg, compounds of Formula I administered IV) was “significant reduction”.

In the case of `NCC1(CC(=O)O)CCCCC1` [Gabapentin, gabapentin, reference compound], the “AUC (Δ% MPE)” value [3] was 50 (100 mg/kg, i.v.) Δ% MPE.

With `C[C@H](NC(=O)/C=C/c1ccc(OC(F)(F)F)cc1)c1ccc2ccccc2c1` [Example 19, (S)-N-(1-Naphthalen-2-yl-eth-yl)-3-(4-tri-fluoromethoxy-phen-yl)-acrylamide] the activity at 1 µM [1] was 123%.

For `CCCC(CCC)C(=O)O` [Valproic acid, reference compound], the “% Reduction (number of spreading depressions, from vehicle control)” value ([4]; 100 mg/kg) was 31 (100 mg/kg, i.v.) %.

Work on `COC(=O)N1CCc2ccc(C(C)NC(=O)/C=C/c3ccccc3C)cc2C1` (racemic) [Example 200, (±)-7-[1-(3-o-Tolyl-acryloyl-amino)-ethyl]-3,4-di-hydro-1H-iso-quinoline-2-carboxylic acid methyl ester] yielded an activity at 10 µM [1] of 126%.

`COc1cccc(/C=C/C(=O)N[C@@H](C)c2ccc3ccccc3c2)c1OC` [Example 6, (S)-3-(2,3-Dimethoxy-phen-yl)-N-(1-naphthalen-2-yleth-yl)-acrylamide] showed an activity at 1 µM [1] of 110%.

With `CC(NC(=O)/C=C/c1ccc(F)cc1)c1ccc(F)c(N2CCOCC2)c1` (racemic) [Example 152, (±)-N-[1-(4-Fluoro-3-morpho-lin-4-yl-phenyl)-eth-yl]-3-(4-fluoro-phen-yl)-acrylamide] the “Stretched attend postures, percent of vehicle control” value ([2]; separate experiments with a vehicle control, dose not given) was 80 % of vehicle control.

In the case of “(S)-N-[1-(3-(2,6-di- methyl-Morpholin)-4-yl-phen- yl)-ethyl]-3-phen- yl-acrylamide [Example 84]”, the “% Reduction (number of spreading depressions, from vehicle control)” value ([4]; 1 mg/kg) was 37 (1 mg/kg, i.v.) %.

`COC(=O)N1CCc2ccc(C(C)NC(=O)/C=C/c3ccccc3Cl)cc2C1` (racemic) [Example 201, (±)-7-{1-[3-(2-Chloro-phen-yl)-acryloylamino]-eth-yl}-3,4-dihydro-1H-iso-quinoline-2-carboxylic acid methyl ester] showed an activity at 5 µM [1] of 157%.
